Experiment: Particle size measurement using a Malvern Particle Sizer S
Type: physicochemical
Conditions: crystalline particles of the calcium salt monohydrate prepared by sonocrystallisation
Procedure: Particle size of the two samples were measured using a Malvern Particle Sizer S. The (v0.5) values are as shown below: […]

Row | D(v,0.5) particle size | SMILES
1 | 32.2 microns | C/C(=C/C(=O)c1ccccc1)N[C@@H](Cc1ccc(OCCc2nc(-c3ccccc3)oc2C)cc1)C(=O)[O-].C/C(=C/C(=O)c1ccccc1)N[C@@H](Cc1ccc(OCCc2nc(-c3ccccc3)oc2C)cc1)C(=O)[O-].[Ca+2] [Sample 1, calcium salt of (2S)-2-{[(Z)-1-methyl-3-oxo-3-phenyl-1-propenyl]amino}-3-{4-[2-(5-methyl-2-phenyl-1,3-oxazol-4-yl)ethoxy]phenyl}propanoic acid]
2 | 42.3 microns | C/C(=C/C(=O)c1ccccc1)N[C@@H](Cc1ccc(OCCc2nc(-c3ccccc3)oc2C)cc1)C(=O)[O-].C/C(=C/C(=O)c1ccccc1)N[C@@H](Cc1ccc(OCCc2nc(-c3ccccc3)oc2C)cc1)C(=O)[O-].[Ca+2] [Sample 2, calcium salt of (2S)-2-{[(Z)-1-methyl-3-oxo-3-phenyl-1-propenyl]amino}-3-{4-[2-(5-methyl-2-phenyl-1,3-oxazol-4-yl)ethoxy]phenyl}propanoic acid]
